Experiments:
Test in all cases: relative viability (nuclei count vs DMSO), 5 days (fraction); higher = more cells survive
RO-3306 + Crizotinib = compound: C1=CC2=C(C=CC(=C2)C=C3C(=O)NC(=NCC4=CC=CS4)S3)N=C1 [RO-3306] + C[C@@H](Oc1cc(-c2cnn(C3CCNCC3)c2)cnc1N)c1c(Cl)ccc(F)c1Cl [Crizotinib] (partner 1 µM)
Summary of the method: (§1)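 Each reported value is a median over duplicate plates. It expresses relative viability: treated-well nuclei count divided by vehicle-well nuclei count. Lung cancer cell lines in 1536-well plates were dosed by pin tool a day after seeding, alone with one drug or with a fixed anchor-drug dose plus five library-drug doses (not always all listed) in √10 steps, and nuclei were counted after 5 days.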

RO-3306 + Decitabine = compound: C1=CC2=C(C=CC(=C2)C=C3C(=O)NC(=NCC4=CC=CS4)S3)N=C1 [RO-3306] + Nc1ncn([C@H]2C[C@H](O)[C@@H](CO)O2)c(=O)n1 [Decitabine] (partner 2 µM)
Summary of the method: as §1

[1] = compound: O=S(=O)(c1ccccc1)N(CC(F)(F)F)c1ccc(C(O)(C(F)(F)F)C(F)(F)F)cc1 + COc1cccc2cc(-c3nc([C@H]4CC[C@H](C(=O)O)CC4)n4ncnc(N)c34)[nH]c12 [OSI-027] (partner 0.5 µM)
Summary of the method: as §1

[2] = compound: O=S(=O)(c1ccccc1)N(CC(F)(F)F)c1ccc(C(O)(C(F)(F)F)C(F)(F)F)cc1 + Cc1nc(Nc2ncc(C(=O)Nc3c(C)cccc3Cl)s2)cc(N2CCN(CCO)CC2)n1 [Dasatinib] (partner 0.075 µM)
Summary of the method: as §1

Cell Line	relative viability (RO-3306 + Crizotinib; first compound 0.01 µM)	relative viability (RO-3306 + Crizotinib; first compound 0.03162 µM)	relative viability (RO-3306 + Crizotinib; first compound 0.1 µM)	relative viability (RO-3306 + Crizotinib; first compound 0.3162 µM)	relative viability (RO-3306 + Crizotinib; first compound 1 µM)	relative viability (RO-3306 + Decitabine; first compound 0.01 µM)	relative viability (RO-3306 + Decitabine; first compound 0.03162 µM)	relative viability (RO-3306 + Decitabine; first compound 0.1 µM)	relative viability (RO-3306 + Decitabine; first compound 0.3162 µM)	relative viability (RO-3306 + Decitabine; first compound 1 µM)	relative viability ([1]; first compound 0.8 µM)	relative viability ([1]; first compound 2.53 µM)	relative viability ([1]; first compound 8 µM)	relative viability ([2]; first compound 0.8 µM)	relative viability ([2]; first compound 2.53 µM)	relative viability ([2]; first compound 8 µM)
201T	1.07	1.03	0.998	0.992	1.02	0.824	0.849	0.879	0.855	0.893	0.685	0.738	0.688	0.463	0.435	0.497
A549	0.872	0.705	0.751	0.687	0.706	0.284	–	0.245	0.254	0.36	–	–	–	–	–	–
A-427	1.02	0.883	0.904	0.955	0.845	0.615	0.545	0.543	0.572	0.568	0.434	0.479	0.676	0.737	0.653	0.846
ABC-1	1.21	0.85	1.12	1.18	1.44	0.953	0.904	0.828	1.03	1.06	0.539	0.426	0.549	0.649	0.531	0.654
BEN	0.834	0.768	0.86	0.906	0.813	0.645	0.69	0.723	0.725	0.824	0.344	0.266	0.308	0.252	0.275	0.333
CAL-12T	0.57	0.49	0.531	0.63	0.508	–	–	–	–	–	0.548	0.554	0.588	0.331	0.216	0.392
COR-L23	0.45	–	0.748	0.694	0.74	0.342	0.405	0.487	0.446	0.394	0.85	0.793	0.734	0.591	0.461	0.5
COR-L 105	0.757	0.794	0.781	0.768	0.673	0.652	0.607	0.596	0.623	0.658	0.763	0.581	0.715	0.299	0.4	0.363
Calu-6	0.909	0.774	0.802	0.804	0.768	–	–	–	–	–	–	–	–	–	–	–
ChaGo-K-1	1.2	1.03	1.14	0.858	0.818	0.514	0.508	0.521	0.476	0.363	0.687	0.522	0.6	0.706	0.648	0.637
EBC-1	0.206	0.233	0.202	0.181	0.205	–	–	–	–	–	–	–	–	–	–	–
EKVX	1.05	0.859	1.03	1.04	0.894	0.298	0.277	0.385	0.322	0.29	0.746	0.646	0.691	0.525	0.514	0.335
EMC-BAC-2	0.768	0.723	0.767	0.735	0.702	1.1	0.915	0.963	0.954	0.972	0.455	0.422	0.37	0.368	0.325	0.353
EPLC-272H	0.948	0.841	0.904	1.03	0.532	0.367	–	0.335	0.324	0.355	0.301	0.304	0.25	0.323	0.398	0.384
H3255	0.926	0.836	0.761	0.916	0.642	0.727	0.509	0.625	0.641	0.57	0.63	0.597	0.603	0.292	0.309	0.362
HARA	1.05	0.916	1.04	1.27	1.01	0.523	–	0.58	0.654	0.692	0.397	0.469	0.425	0.294	0.287	0.242
HCC-15	1.01	0.707	0.848	0.925	0.763	0.606	0.547	0.563	0.662	0.552	0.799	0.607	0.623	0.616	0.496	0.539
HCC-44	0.825	0.83	0.881	0.835	0.818	0.951	0.95	1.02	0.917	0.956	–	0.482	0.6	–	–	–
HCC-78	0.357	0.324	0.369	0.372	0.335	0.674	0.597	0.657	0.661	0.692	0.342	0.399	0.469	0.374	0.336	0.919

— the supplement of paper PMC10307832
